Measured values from patent US20050272662A1, “Self-assembled peptide-amphiphiles & self-assembled peptide nanofiber networks presenting multiple signals” (priority 2002, published 2005).
Residues, ends and D or L forms follow the SMILES beside them. *: point of attachment. Palmitoyl = CCCCCCCCCCCCCCCC(=O)*

Details: concentration about 10 mg/mL
Procedure: The two molecules can be dissolved in pH-adjusted water at a concentration of about 2-30 mg/ml, and preferably about 10 mg/mL.
The molecules were then dissolved in water at a concentration of 10 mg/mL, adjusting the pH to improve solubility. […] In the case of molecule 1, the pH was raised to about pH 8 with 2M and 100 mM KOH, then back-titrated to pH 7.

SMILES: CCCCCCCCCCCCCCCC(=O)N[C@@H](C)C(=O)N[C@@H](C)C(=O)N[C@@H](C)C(=O)N[C@@H](C)C(=O)NCC(=O)NCC(=O)NCC(=O)N[C@@H](CCCCN)C(=O)N[C@@H](Cc1ccc(O)cc1)C(=O)N[C@H](C(=O)NCC(=O)N[C@@H](CO)C(=O)N[C@@H](CCCNC(=N)N)C(N)=O)[C@@H](C)CC [Molecule 2] (Palmitoyl-AAAAGGGKYIGSR-NH2)
- appearance of solution in pH-adjusted water: translucent
